Measurements reported in article PMC12518693, “Potent Fluorescent Probe for Target‐Engagement Studies of Allosteric Pyruvate Kinase Modulators” (Angewandte Chemie (International Ed. in English), 2025).

What was measured:
HEK293 cells = assay: Live-cell uptake by confocal microscopy; assay type: cell-based; conditions: live HEK293, 1 µM
Method: To investigate the cellular permeability of IV, we employed confocal microscopy to monitor the uptake of the tracer in live HEK293 cells over time. The tracer was added to live cells at a final concentration of 1 µM, and real‐time fluorescence intensity was recorded immediately after addition. A rapid increase in fluorescence was observed, reaching a stable plateau approximately 4 min after addition, indicating fast cellular uptake and […] (Figure 3a and Video S1).
Fluorescence intensity was then continuously monitored for 60 min. To assess potential fluorophore degradation, corrected total cell fluorescence (CTCF) was calculated at each time point (Figure S6). Fluorescence values from regions of interest (ROIs) were integrated and normalized cell area and background signals in the absence of tracer.
To attach HEK293 cells to the bottom of 24-well imaging plates (Ibidi 82427), a Cell-Tak adhesive mixture (Corning, 354240) was used. It was prepared with a mixture of sodium bicarbonate (75 g/L), sodium hydroxide (40 g/L) and Cell-Tak (2.03 g/L) at a volume ratio of 291:5:4. For each well, 500 μL of Cell-Tak mix was added and incubated at room temperature for 30 min. […] For analysing intracellular fluorescence and distribution of IV within HEK293 cells, Z-stack images (22 images) were acquired after 5, 15, 30 and 60 min of incubation across a physical depth of ~22 μm. […]

PKM2 [1] = target: T1, PKM2 (Homo sapiens, UniProt P14618); assay: Recombinant PKM2 activity assay (Kinase-Glo MAX); assay type: biochemical; design: made in house
Method: As these compounds were binding to a known allosteric site on PK, the effects of ligands I–IV on the enzymatic activities of PKL and PKM2 were determined (Figure S2). The two isozymes were incubated with increasing concentrations of compounds before the addition of substrates PEP and adenosine diphosphate (ADP), and the reactions were monitored using a Kinase‐Glo MAX assay.
(§1) Figure S2. Effects of ligands I-IV on recombinant PK activities. PKL or PKM2 (10 nM) were pre-incubated with the compounds (0-100 µM) for 15 min following the addition of PEP (0.1 mM) and ADP (0.2 mM). The reactions were terminated by the addition of Kinase Glo-MAX reagent after 10 min, and the luminescence from each reaction was quantified using a plate reader. The activity values are expressed as a percentage of PK activity of the DMSO control. The potencies were calculated by best fit of the Hill equation to the luminescence data.^[2] (A) PKL titrations. (B) PKM2 titrations. Error bars represent the ±SE of replicates (n = 3).

PKM2 [2] = target: T1, PKM2; assay: Surface plasmon resonance, PKM2
PKL = PKL (Homo sapiens, UniProt P30613); assay: Recombinant PKL activity assay (Kinase-Glo MAX); assay type: biochemical; design: co-crystallisation of full-length PKL (including the B-domain); 8xHis (TEV-cleavable) (N, cleaved yes); made in house; host or cells: E. coli T7 Express (NEB), pExp-NHis plasmid
Method: The two isozymes were incubated with increasing concentrations of compounds before the addition of substrates PEP and adenosine diphosphate (ADP), and the reactions were monitored using a Kinase‐Glo MAX assay.
as §1, with “Effects of ligands I-IV on recombinant PK activities. PKL or PKM2 (10 nM) were pre-incubated with the compounds (0-100 µM) for 15 min following the addition of PEP (0.1 mM) and ADP (0.2 mM).” left out
The reaction mixture contained 0.2 mM ADP, 0.1 mM PEP, 5 nM PKL, 1% DMSO, and test compounds at concentrations ranging from 0 to 1 mM across 12 titration points. Prior to substrate addition, PKL and test compounds were pre-incubated for 15 minutes.
After the reaction, 5 µL of Kinase-Glo Max reagent was added to each well. […] For each data set, luminescence from the DMSO control was set as 100% activity, and luminescence from the protein blank (no PKL) as 0% activity. Percentage activity (E%) was calculated using the equation: […]
Titration data was fitted to the Hill equation in Origin to determine EC₅₀ values.

T1 sequence (P14618 whole entry): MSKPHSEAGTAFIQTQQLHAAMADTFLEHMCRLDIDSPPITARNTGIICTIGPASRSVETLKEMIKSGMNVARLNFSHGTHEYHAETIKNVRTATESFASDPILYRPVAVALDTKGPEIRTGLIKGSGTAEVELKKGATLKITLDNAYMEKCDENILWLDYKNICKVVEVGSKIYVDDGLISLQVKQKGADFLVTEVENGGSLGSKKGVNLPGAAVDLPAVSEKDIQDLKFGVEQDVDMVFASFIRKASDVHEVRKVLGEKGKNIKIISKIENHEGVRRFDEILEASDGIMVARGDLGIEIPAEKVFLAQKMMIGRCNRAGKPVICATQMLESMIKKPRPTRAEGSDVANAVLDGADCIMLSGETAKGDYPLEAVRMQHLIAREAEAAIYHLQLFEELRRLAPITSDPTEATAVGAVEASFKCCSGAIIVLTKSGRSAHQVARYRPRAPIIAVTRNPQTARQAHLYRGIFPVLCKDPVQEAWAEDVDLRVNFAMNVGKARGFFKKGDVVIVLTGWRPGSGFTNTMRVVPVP
PKL, sequence (P30613 1-543 isoform P30613-2): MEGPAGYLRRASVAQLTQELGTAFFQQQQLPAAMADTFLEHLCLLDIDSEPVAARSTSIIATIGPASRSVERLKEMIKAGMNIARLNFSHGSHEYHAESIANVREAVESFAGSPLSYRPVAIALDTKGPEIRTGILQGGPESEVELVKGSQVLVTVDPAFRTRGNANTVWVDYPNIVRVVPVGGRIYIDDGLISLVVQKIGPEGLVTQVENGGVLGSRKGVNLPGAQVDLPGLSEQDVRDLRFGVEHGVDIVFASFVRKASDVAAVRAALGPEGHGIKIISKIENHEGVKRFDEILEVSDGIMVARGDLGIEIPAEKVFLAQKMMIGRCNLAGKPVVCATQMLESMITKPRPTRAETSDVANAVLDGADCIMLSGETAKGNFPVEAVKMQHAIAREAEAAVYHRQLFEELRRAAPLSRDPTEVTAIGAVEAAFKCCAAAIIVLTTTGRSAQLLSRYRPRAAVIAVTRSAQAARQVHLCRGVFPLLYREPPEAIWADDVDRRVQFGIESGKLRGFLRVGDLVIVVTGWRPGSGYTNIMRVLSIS

With `CN(C)c1ccc(S(=O)(=O)c2ccc3c(=O)n(Cc4cc[nH]n4)ncc3c2)c2nonc12` [Compound IV, 2-((1H-Pyrazol-3-yl)methyl)-6-((7-(dimethylamino)benzo[c][1,2,5]oxadiazol-4-yl)sulfonyl)phthalazin-1(2H)-one] the “time to stable fluorescence plateau after addition” value (HEK293 cells) was “approximately 4 min”, the “PKM2 E max” value (PKM2 [1]; recombinant PKM2) was 449 % of vehicle and the EC50 (PKM2 [1]; recombinant PKM2 10 nM, 15 min pre-incubation, PEP 0.1 mM, ADP 0.2 mM) was 17 nM. It also gave a Kd (PKM2 [2]) of 1370 ± 218 nM, a koff (PKM2 [2]; read-out: k off SPR (PKM2)) of 0.0133 s⁻¹ and a kon (PKM2 [2]; read-out: k on SPR (PKM2)) of 9830 M⁻¹ s⁻¹. For the same molecule, the EC50 (PKL; recombinant PKL 10 nM, 15 min pre-incubation, PEP 0.1 mM, ADP 0.2 mM) was 13 nM and the “PKL E max” value (PKL; recombinant PKL, above 100% activation, below 100% inhibition) was 169 % vehicle.
